In PubChem BioAssay (NCI):
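Following 48 hours of exposure in 96-well plates, responses at five concentrations were used to interpolate endpoints linearly. GI50 = concentration required for 50% inhibition of growth. TGI marks complete inhibition of growth.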

Key:
Test in all cases: inhibition of tumour cell growth, NCI panel, 48 h
IGROV1 ovarian = tested on: IGROV1 ovarian
OVCAR-8 ovarian = tested on: OVCAR-8 ovarian
UACC-257 melanoma = tested on: UACC-257 melanoma
NCI-H460 lung = tested on: NCI-H460 lung
KM12 colon = tested on: KM12 colon
SF-268 CNS = tested on: SF-268 CNS
DU-145 prostate = tested on: DU-145 prostate
LOX IMVI melanoma = tested on: LOX IMVI melanoma
HS 578T breast = tested on: HS 578T breast
MDA-MB-435 = tested on: MDA-MB-435

Structure (SMILES) | TGI (IGROV1 ovarian) [µM] | TGI (OVCAR-8 ovarian) [µM] | TGI (UACC-257 melanoma) [µM] | TGI (NCI-H460 lung) [µM] | TGI (KM12 colon) [µM] | TGI (SF-268 CNS) [µM] | TGI (DU-145 prostate) [µM] | TGI (LOX IMVI melanoma) [µM] | TGI (HS 578T breast) [µM] | TGI (MDA-MB-435) [µM] | GI50 (IGROV1 ovarian) [nM] | GI50 (OVCAR-8 ovarian) [nM] | GI50 (UACC-257 melanoma) [nM] | GI50 (DU-145 prostate) [nM] | GI50 (LOX IMVI melanoma) [nM] | GI50 (NCI-H460 lung) [nM] | GI50 (KM12 colon) [nM] | GI50 (MDA-MB-435) [nM] | GI50 (SF-268 CNS) [nM]
C[n+]1c2ccccc2c(CNC(CS)C(=O)O)c2ccccc21 (configuration not stated) | 67.2 | 75 | > 100 | 47.9 | 57.5 | > 100 | – | – | – | – | – | – | – | – | – | – | – | – | –
Cc1[nH]n(-c2ccccc2)c(=O)c1C(N(CCc1ccccc1)C1=NCC(C)S1)(C(F)(F)F)C(F)(F)F (configuration not stated) | – | – | 56.7 | 38.2 | > 100 | > 100 | > 100 | > 100 | 88.4 | > 100 | – | – | – | – | – | – | – | – | –
Oc1ccc(-c2nc3cc(F)ccc3s2)cc1 | 43.4 | > 100 | 69.6 | 48.8 | 52.5 | 74 | 41.3 | 33.3 | – | 43.1 | – | – | – | – | – | – | – | – | –
COC(=O)/C=C1\CCCN1CCc1cc2c(cc1CC#N)OCO2 | > 100 | > 100 | > 100 | > 100 | > 100 | > 100 | > 100 | > 100 | > 100 | 45.1 | – | – | – | – | – | – | – | – | –
CCOP(=O)(OCC)C(Nc1cccc(F)c1)c1ccc(N(C)C)cc1 (configuration not stated) | > 100 | > 100 | > 100 | > 100 | > 100 | > 100 | > 100 | > 100 | > 100 | > 100 | – | – | – | – | – | – | – | – | –
CC1C(=O)C(C)C(c2ccco2)N(N=O)C1c1ccco1 (configuration not stated) | > 100 | > 100 | > 100 | > 100 | > 100 | > 100 | – | > 100 | – | – | – | – | – | – | – | – | – | – | –
CN(C)c1ccc(/C=c2/c3ccccc3n3c2cc(NC(=O)NCCC[N+](C)(C)C)[n+]3C)cc1 | 46.9 | > 100 | > 100 | > 100 | > 100 | > 100 | > 100 | > 100 | > 100 | > 100 | – | – | – | – | – | – | – | – | –
N=c1oc2ccc(Cl)cc2cc1C(N)=O | > 100 | > 100 | > 100 | > 100 | 88.4 | > 100 | > 100 | > 100 | 63.9 | 82 | – | – | – | – | – | – | – | – | –
O=C(CSc1nc2ccc(I)cc2c(=O)n1Cc1ccccc1)NN1C(=O)c2ccccc2C1=O | 64.2 | 34.1 | 51.4 | > 100 | > 100 | 36.4 | 95.1 | 44.9 | 43.1 | > 100 | – | – | – | – | – | – | – | – | –
COc1cc([N+](=O)[O-])ccc1N1C(=O)C2c3[nH]c4ccccc4c3C3CCC(C(C)(C)C)CC3C2C1=O (configuration not stated) | > 100 | > 100 | > 100 | > 100 | > 100 | – | > 100 | > 100 | 43.4 | > 100 | – | – | – | – | – | – | – | – | –
CSc1ccc(/C=C2\N=C(c3ccccc3)N(/N=C3\C(=O)Nc4ccccc43)C2=O)cc1 | > 100 | > 100 | > 100 | > 100 | > 100 | > 100 | > 100 | > 100 | > 100 | > 100 | – | – | – | – | – | – | – | – | –
Nc1nnc2oc3ccc4ccccc4c3cc1-2 | > 100 | > 100 | > 100 | > 100 | > 100 | > 100 | > 100 | > 100 | > 100 | > 100 | – | – | – | – | – | – | – | – | –
CCc1ccc2c(c1)C(=O)c1c-2n(CCCN)c(=O)c2cc([N+](=O)[O-])ccc12 | 2.56 | 2.35 | 3.42 | 0.504 | 2.43 | – | 2.05 | 2.62 | – | 3 | 1220 | 1020 | 1880 | 775 | 1190 | 167 | 1020 | 1560 | –
N#C/C(C(=O)Nc1ccc(Cl)cc1)=C(/N)N1CCOCC1 | > 100 | > 100 | > 100 | > 100 | > 100 | – | > 100 | > 100 | – | > 100 | – | – | – | – | – | – | – | – | –
COC(=O)NC1C(C)OC(OC2C/C=C(/C)C3C=CC4C(OC5CC(OC6CC(OC7CC(O)C(O)C(C)O7)C(OC7CC(O)C(OC)C(C)O7)C(C)O6)C(O)C(C)O5)C(C)CC(C)C4C3(C)/C(O)=C3\C(=O)OC4(CC(C)C(CO)=CC4/C=C\2C)C3=O)CC1(C)[N+](=O)[O-] (configuration not stated) | 34 | 33.4 | 57.8 | 4.86 | 20.5 | > 100 | 19.6 | 14.8 | > 100 | > 100 | – | – | – | – | – | – | – | – | –
CC1(O)COCCCCOc2c(CN)cccc2NC(=O)c2nc(cnc2N)-c2ccc(cc2)S(=O)(=O)C(C)(C)C1 (configuration not stated) | 2.7 | 3.63 | 3.35 | 1.94 | 2.93 | 3.19 | 2.04 | – | – | 2.72 | 1280 | 1310 | 1760 | 38.8 | – | < 10 | 1430 | 1350 | 1510
c1c2c(cc3c1OCO3)-c1cc3ccc4c(c3c[n+]1CC2)OCO4 | > 12.5 | 4.13 | > 12.5 | 3.55 | > 5.45 | > 12.5 | > 12.5 | > 8.44 | > 12.5 | 0.865 | – | – | – | – | – | – | – | – | –
COC(=O)c1ccccc1C1=C([N+](=O)[O-])C(c2cccc(Br)c2)C(C#N)=C(N)O1 (configuration not stated) | 77.6 | 45.1 | > 100 | > 100 | – | 93.3 | > 100 | 38.1 | 56.9 | 57.4 | – | – | – | – | – | – | – | – | –
COc1ccc(/C=C2\N=C(c3ccccc3)OC2=O)cc1OC(C)=O | > 100 | > 100 | > 100 | > 100 | – | > 100 | > 100 | > 100 | > 100 | > 100 | – | – | – | – | – | – | – | – | –
